Assay results: patent US12077503B2, “Substituted cyclic amides and their use as herbicides” (FMC CORPORATION, priority 2015, dated 2024)

Legend:
Type in all cases: in vivo
[1] = test system: barnyardgrass (Echinochloa crus-galli); experiment: Test G Pre-Emergence Protocol; conditions: Echinochloa crus-galli, pre-emergence, 312 h, evaluated after 13 days
Protocol: (§1) Seeds of corn (Zea mays), giant foxtail (Setaria faberi), barnyardgrass (Echinochloa crus-galli), ivy-leaved morning glory (Ipomoea hederacea), redroot pigweed (Amaranthus retroflexus) and velvetleaf (Abutilon theophrasti) were sown in standard soil in pots. After cultivation for one day under controlled conditions in a glasshouse (at 24/16° C., day/night; 14 hours light; 65% humidity), the plants were sprayed with an aqueous spray solution derived from the formulation of the technical active ingredient in acetone/water (50:50) solution containing 0.5% Tween 20 (polyoxyethylene sorbitan monolaurate, CAS RN 9005-64-5) to give a final dose of 15.625, 62.5 or 250 g/ha of test compound.
(§2) The test plants were then grown on under controlled conditions in a glasshouse (at 24/16° C., day/night; 14 hours light; 65% humidity) and watered twice daily. After 13 days the test was evaluated (100=total damage to plant; 0=no damage to plant). A dash (-) means no test result.

corn (Zea mays) = experiment: Test G Pre-Emergence Protocol; conditions: Zea mays, pre-emergence, 312 h, evaluated after 13 days
Protocol: as §1, §2

[2] = test system: giant foxtail (Setaria faberi); experiment: Test G Pre-Emergence Protocol; conditions: Setaria faberi, pre-emergence, 312 h, evaluated after 13 days
Protocol: as §1, §2

[3] = test system: ivy-leaved morning glory (Ipomoea hederacea); experiment: Test G Pre-Emergence Protocol; conditions: Ipomoea, pre-emergence, 312 h, evaluated after 13 days
Protocol: as §1, §2

[4] = test system: redroot pigweed (Amaranthus retroflexus); experiment: Test G Pre-Emergence Protocol; conditions: Amaranthus retroflexus, pre-emergence, 312 h, evaluated after 13 days
Protocol: as §1, §2

[5] = test system: velvetleaf (Abutilon theophrasti); experiment: Test G Pre-Emergence Protocol; conditions: Abutilon theophrasti, pre-emergence, 312 h, evaluated after 13 days
Protocol: as §1, §2

[6] = test system: ducksalad (Heteranthera limosa); experiment: Test C flooded paddy test; conditions: Flood; for Plant response rating (scale of 0 to 100), Ducksalad: 0 is no effect, 100 is complete control
How it was run: (§3)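 Visual 0–100 injury rating versus controls (0 = no effect, 100 = complete control) at 13 to 15 d. 2-leaf-stage plants; pots flooded 3 cm over soil surface, test compound added to paddy water; greenhouse.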

rice (Oryza sativa) = experiment: Test C flooded paddy test; conditions: Flood; for Plant response rating (scale of 0 to 100), Rice: 0 is no effect, 100 is complete control
How it was run: as §3

[7] = test system: sedge, umbrella (small-flower umbrella sedge, Cyperus difformis); experiment: Test C flooded paddy test; conditions: Flood; for Plant response rating (scale of 0 to 100), Sedge, Umbrella: 0 is no effect, 100 is complete control
How it was run: as §3

[8] = 31 g ai/ha, scale 0 to 100 (0 no effect, 100 complete control), 13 to 15 d

SMILES: CN1C[C@H](c2ccc(C(F)(F)F)cc2)[C@@H](C(=O)Nc2cccnc2F)C1=O [Compound 1396]
- pest or weed control at 15.625 g/ha ([1]; 15.625 g ai/ha, read-out: Barnyard grass damage rating (100=total damage to plant; 0=no damage to plant)): 80%
- pest or weed control at 62.5 g/ha ([1]; 62.5 g ai/ha, 100=total damage to plant, 0=no damage to plant, read-out: plant damage rating, Barnyardgrass): 90%
- pest or weed control at 250 g/ha ([1]; 250 g ai/ha, read-out: Barnyardgrass damage rating (100=total damage to plant; 0=no damage to plant)): 90%
- plant injury at 15.625 g/ha (corn (Zea mays); 15.625 g ai/ha, read-out: Corn damage rating (100=total damage to plant; 0=no damage to plant)): 70%
- plant injury at 62.5 g/ha (corn (Zea mays); 62.5 g ai/ha, 100=total damage to plant, 0=no damage to plant, read-out: plant damage rating, Corn): 80%
- plant injury at 250 g/ha (corn (Zea mays); 250 g ai/ha, read-out: Corn damage rating (100=total damage to plant; 0=no damage to plant)): 80%
- pest or weed control at 15.625 g/ha ([2]; 15.625 g ai/ha, read-out: Foxtail, Giant damage rating (100=total damage to plant; 0=no damage to plant)): 90%
- pest or weed control at 62.5 g/ha ([2]; 62.5 g ai/ha, 100=total damage to plant, 0=no damage to plant, read-out: plant damage rating, Foxtail, Giant): 90%
- pest or weed control at 250 g/ha ([2]; 250 g ai/ha, read-out: Foxtail, Giant damage rating (100=total damage to plant; 0=no damage to plant)): 100%
- pest or weed control at 15.625 g/ha ([3]; 15.625 g ai/ha, read-out: Morning-glory, Ivy-leaved damage rating (100=total damage to plant; 0=no damage to plant)): 0%
- pest or weed control at 62.5 g/ha ([3]; 62.5 g ai/ha, 100=total damage to plant, 0=no damage to plant, read-out: plant damage rating, Morningglory, Ivy-leaved): 70%
- pest or weed control at 250 g/ha ([3]; 250 g ai/ha, read-out: Morningglory, Ivy-leaved damage rating (100=total damage to plant; 0=no damage to plant)): 70%
- pest or weed control at 15.625 g/ha ([4]; 15.625 g ai/ha, read-out: Pigweed, Redroot damage rating (100=total damage to plant; 0=no damage to plant)): 80%
- pest or weed control at 62.5 g/ha ([4]; 62.5 g ai/ha, 100=total damage to plant, 0=no damage to plant, read-out: plant damage rating, Pigweed, Redroot): 80%
- pest or weed control at 250 g/ha ([4]; 250 g ai/ha, read-out: Pigweed, Redroot damage rating (100=total damage to plant; 0=no damage to plant)): 80%
- pest or weed control at 15.625 g/ha ([5]; 15.625 g ai/ha, read-out: Velvetleaf damage rating (100=total damage to plant; 0=no damage to plant)): 40%
- pest or weed control at 62.5 g/ha ([5]; 62.5 g ai/ha, 100=total damage to plant, 0=no damage to plant, read-out: plant damage rating, Velvetleaf): 70%
- pest or weed control at 250 g/ha ([5]; 250 g ai/ha, read-out: Velvetleaf damage rating (100=total damage to plant; 0=no damage to plant)): 80%

SMILES: CN1CC(c2cc(F)cc(F)c2)C(C(=O)Nc2cccc(F)c2F)C1=O (stereo not drawn) [Compound 644]
- Plant response rating, Ducksalad [6, 8]: 55
- Plant response rating (scale of 0 to 100), Ducksalad ([6]; 62 g ai/ha): 65
- Plant response rating (scale of 0 to 100), Ducksalad ([6]; 125 g ai/ha): 100
- Plant response rating (scale of 0 to 100), Ducksalad ([6]; 250 g ai/ha): 100
- Plant response rating, Rice (rice (Oryza sativa); [8]): 0
- Plant response rating (scale of 0 to 100), Rice (rice (Oryza sativa); 62 g ai/ha): 0
- Plant response rating (scale of 0 to 100), Rice (rice (Oryza sativa); 125 g ai/ha): 0
- Plant response rating (scale of 0 to 100), Rice (rice (Oryza sativa); 250 g ai/ha): 0
- Plant response rating, Sedge, Umbrella [7, 8]: 0
- Plant response rating (scale of 0 to 100), Sedge, Umbrella ([7]; 62 g ai/ha): 0
- Plant response rating (scale of 0 to 100), Sedge, Umbrella ([7]; 125 g ai/ha): 0
- Plant response rating (scale of 0 to 100), Sedge, Umbrella ([7]; 250 g ai/ha): 0

SMILES: CN1CC(c2ccc(F)c(C(F)(F)F)c2)C(C(=O)Nc2ccccc2S(C)(=O)=O)C1=O (stereo not drawn) [Compound 612]
- Plant response rating (scale of 0 to 100), Ducksalad ([6]; 31 g ai/ha): 0
- Plant response rating (scale of 0 to 100), Ducksalad ([6]; 62 g ai/ha): 0
- Plant response rating (scale of 0 to 100), Ducksalad ([6]; 125 g ai/ha): 0
- Plant response rating (scale of 0 to 100), Ducksalad ([6]; 250 g ai/ha): 55
- Plant response rating (scale of 0 to 100), Rice (rice (Oryza sativa); 31 g ai/ha): 0
- Plant response rating (scale of 0 to 100), Rice (rice (Oryza sativa); 62 g ai/ha): 0
- Plant response rating (scale of 0 to 100), Rice (rice (Oryza sativa); 125 g ai/ha): 0
- Plant response rating (scale of 0 to 100), Rice (rice (Oryza sativa); 250 g ai/ha): 15
- Plant response rating (scale of 0 to 100), Sedge, Umbrella ([7]; 31 g ai/ha): 0
- Plant response rating (scale of 0 to 100), Sedge, Umbrella ([7]; 62 g ai/ha): 0
- Plant response rating (scale of 0 to 100), Sedge, Umbrella ([7]; 125 g ai/ha): 0
- Plant response rating (scale of 0 to 100), Sedge, Umbrella ([7]; 250 g ai/ha): 0
